Experimental data as given in paper PMC2916045 (Journal of the American Chemical Society, 2010).
“Also recorded” adds a separate entry of the source.

Tests used:
α-tubulin acetylation = conditions: at 5 µM; ref 29 (Parmigiani et al.); cited from earlier work
[1] = tested on: α-tubulin hyperacetylation, corresponding to HDAC6 inhibition; test: α-tubulin hyperacetylation in cells; conditions: for α-tubulin hyperacetylation versus histone hyperacetylation: at 2.5 µM
[2] = tested on: primary cortical neuron cultures; test: Neuronal toxicity of compound alone; type: cell-based, Sprague-Dawley rats; conditions: all concentrations tested, without HCA, 24 h, MTT
[3] = tested on: histone hyperacetylation, corresponds to class I HDAC inhibition; test: histone hyperacetylation in cells; conditions: at 10 µM
[4] = tested on: primary cortical neuron cultures; test: HCA oxidative stress neuroprotection assay

Structure (SMILES)	α-tubulin acetylation (α-tubulin acetylation)	α-tubulin hyperacetylation versus histone hyperacetylation [1]	neuronal toxicity when tested alone [2]	in vitro ADME properties (in vitro ADME properties)	histone hyperacetylation [3]	concentration at which protection against HCA-induced neuronal cell death starts ([4]; HCA 5 mM, 24 h, MTT)	protection against HCA-induced neuronal cell death (glutathione depletion-induced oxidative stress) ([4]; HCA 5 mM, 24 h, MTT, concentration series)	protection against HCA-induced neuronal cell death ([4]; at 10 µM, HCA 5 mM, 24 h, MTT)	levels of acetylated α-tubulin ([1]; primary cortical neuron cultures)	neuroprotection in HCA-induced neurodegeneration assay ([4]; at 0.5 µM, HCA 5 mM, 24 h, MTT)	neurotoxicity in HCA-induced neurodegeneration assay ([4]; at concentrations higher than 0.5 µM, protection declined)
O=C(CCCCCCC(=O)Nc1ccc([C@H]2O[C@@H](CSc3nc(-c4ccccc4)c(-c4ccccc4)o3)C[C@@H](c3ccc(CO)cc3)O2)cc1)NO [Tubacin, reference compound]	induces α-tubulin acetylation	preferentially induced α-tubulin hyperacetylation									
CN1CCc2c(c3ccccc3n2Cc2ccc(C(=O)NO)cc2)C1.O=C(O)C(F)(F)F [compound 6, Tubastatin A]		preferentially induced α-tubulin hyperacetylation	exhibited no toxicity; also recorded: no neuronal toxicity	favorable in vitro ADME properties	Slight induction of histone hyperacetylation	5 µM	dose-dependent protection	near complete protection	induce elevated levels of acetylated α-tubulin		
CC(/C=C/C(=O)NO)=C\[C@@H](C)C(=O)c1ccc(N(C)C)cc1 [TSA, trichostatin A, reference compound]										moderately neuroprotective	dose-dependant neurotoxicity
